Legend:
[1] = target: T1, 5-hydroxytryptamine receptor 2C (Homo sapiens) (UniProt P28335); assay: Agonist activity at human recombinant 5HT2C receptor expressed in CHO K1 cells assessed as induction of calcium mobilization by FLIPR assay relative to 5-HT; format: functional, cell-based
T1 sequence (whole entry): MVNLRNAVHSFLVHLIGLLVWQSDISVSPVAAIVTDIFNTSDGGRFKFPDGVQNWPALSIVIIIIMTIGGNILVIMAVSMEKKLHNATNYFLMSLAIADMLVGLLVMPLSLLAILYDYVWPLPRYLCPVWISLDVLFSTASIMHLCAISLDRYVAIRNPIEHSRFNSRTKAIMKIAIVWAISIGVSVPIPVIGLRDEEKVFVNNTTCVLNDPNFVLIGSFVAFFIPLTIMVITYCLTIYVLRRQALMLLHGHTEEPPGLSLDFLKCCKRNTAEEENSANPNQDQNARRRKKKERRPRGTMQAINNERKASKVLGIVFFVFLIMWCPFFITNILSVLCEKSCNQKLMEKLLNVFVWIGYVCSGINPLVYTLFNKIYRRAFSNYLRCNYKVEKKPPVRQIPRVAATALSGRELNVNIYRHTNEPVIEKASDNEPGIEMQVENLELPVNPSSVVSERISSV

[2] = target: T2, 5-hydroxytryptamine receptor 2C (Homo sapiens, UniProt P28335)
T2 sequence (P28335 whole entry): T1 sequence (whole entry)

[3] = target: T3, 5-hydroxytryptamine receptor 2B (Homo sapiens, UniProt P41595)
[4] = tested on: MDR1; assay: in vitro; conditions: dog, MDCK-MDR1
Description: Apparent membrane permeability across apical to basolateral side of MDR1 expressing MDCK cells

[5] = in vitro; conditions: human, liver microsomes
Description: (§1) Metabolic stability in human liver microsomes assessed per mg of protein

[6] = physchem; conditions: buffer, pH 7.4
Description: Lipophilicity, log D at pH 7.4

[7] = target: T3, 5-hydroxytryptamine receptor 2B; assay: Agonist activity at human recombinant 5HT2B receptor assessed as induction of calcium mobilization by FLIPR assay relative to 5-HT; format: functional
[8] = tested on: Liver microsomes; conditions: human
Description: as §1

[9] = target: T3, 5-hydroxytryptamine receptor 2B; assay: Agonist activity at human recombinant 5HT2B receptor assessed as induction of calcium mobilization at 10 uM by FLIPR assay relative to 5-HT; format: functional
[10] = target: 5-hydroxytryptamine receptor 2A (Canis lupus familiaris, UniProt O46635); assay: Agonist activity at 5-HT2A receptor in dog bladder strip; format: functional
[11] = target: 5-hydroxytryptamine receptor 2A (Canis lupus familiaris) (UniProt O46635); assay: Agonist activity at 5-HT2A receptor in dog bladder strip relative to 5-HT; format: functional
[12] = species: Homo sapiens; assay: Selectivity ratio of EC50 for human recombinant 5HT2B receptor to EC50 for human recombinant 5HT2A receptor
[13] = target: Voltage-gated inwardly rectifying potassium channel KCNH2 (Homo sapiens, UniProt Q12809); assay: Displacement of dofrtilide from human ERG channel
[14] = target: T4, 5-hydroxytryptamine receptor 3A (Homo sapiens, UniProt P46098); assay: Inhibition of 5HT3 receptor
T4 sequence (P46098 whole entry): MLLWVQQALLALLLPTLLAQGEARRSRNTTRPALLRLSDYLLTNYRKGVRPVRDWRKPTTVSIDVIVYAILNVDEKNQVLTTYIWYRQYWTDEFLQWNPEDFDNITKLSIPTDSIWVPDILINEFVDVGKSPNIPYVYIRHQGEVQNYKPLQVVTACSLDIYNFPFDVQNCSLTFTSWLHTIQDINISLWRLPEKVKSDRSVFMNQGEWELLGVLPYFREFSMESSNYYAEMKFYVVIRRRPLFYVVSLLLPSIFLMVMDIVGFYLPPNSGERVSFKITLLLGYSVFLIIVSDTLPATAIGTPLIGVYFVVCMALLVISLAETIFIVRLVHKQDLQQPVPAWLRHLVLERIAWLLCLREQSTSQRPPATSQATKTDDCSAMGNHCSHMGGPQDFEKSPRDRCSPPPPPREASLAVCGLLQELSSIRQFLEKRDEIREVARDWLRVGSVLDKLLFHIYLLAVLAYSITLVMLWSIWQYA

[15] = target: Beta-2 adrenergic receptor (Homo sapiens, UniProt P07550); assay: Inhibition of beta2 adrenergic receptor
[16] = target: Muscarinic acetylcholine receptor M3 (Homo sapiens, UniProt P20309); assay: Inhibition of muscarinic receptor 3
[17] = target: Cytochrome P450 2D6 (Homo sapiens, UniProt P10635); assay: Inhibition of CYP2D6; format: ADME
[18] = target: Cytochrome P450 3A4 (Homo sapiens, UniProt P08684); assay: Inhibition of CYP3A4; format: ADME
[19] = target: Cytochrome P450 2C9 (Homo sapiens, UniProt P11712); assay: Inhibition of CYP2C9; format: ADME
[20] = target: T5, Cytochrome P450 1A2 (Homo sapiens, UniProt P05177); assay: Inhibition of CYP1A2; format: ADME
T5 sequence (P05177 whole entry): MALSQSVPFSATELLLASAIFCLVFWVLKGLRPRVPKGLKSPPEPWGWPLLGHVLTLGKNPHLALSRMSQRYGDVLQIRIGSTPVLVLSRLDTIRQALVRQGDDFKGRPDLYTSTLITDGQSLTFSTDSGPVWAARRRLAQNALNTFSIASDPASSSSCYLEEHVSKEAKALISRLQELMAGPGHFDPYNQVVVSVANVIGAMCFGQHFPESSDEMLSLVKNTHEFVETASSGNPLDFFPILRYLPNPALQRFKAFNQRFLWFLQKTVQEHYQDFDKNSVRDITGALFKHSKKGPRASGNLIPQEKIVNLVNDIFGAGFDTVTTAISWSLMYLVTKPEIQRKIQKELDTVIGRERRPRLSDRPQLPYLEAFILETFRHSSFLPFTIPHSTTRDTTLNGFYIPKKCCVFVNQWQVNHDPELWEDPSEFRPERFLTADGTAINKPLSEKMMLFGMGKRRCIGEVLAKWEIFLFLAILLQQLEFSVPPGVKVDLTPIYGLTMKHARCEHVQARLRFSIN

[21] = tested on: Canis familiaris; assay: Increase of peak urethral pressure in dog model of stress incontinence at 150 ug/kg, iv after 60 mins; format: functional, Canis lupus familiaris, Urethra
[22] = Plasma concentration in dog model of stress incontinence at 150 ug/kg, iv after 60 mins; format: ADME, organism-based, Canis lupus familiaris; conditions: 0.15 mg/kg

T3 sequence (P41595 whole entry): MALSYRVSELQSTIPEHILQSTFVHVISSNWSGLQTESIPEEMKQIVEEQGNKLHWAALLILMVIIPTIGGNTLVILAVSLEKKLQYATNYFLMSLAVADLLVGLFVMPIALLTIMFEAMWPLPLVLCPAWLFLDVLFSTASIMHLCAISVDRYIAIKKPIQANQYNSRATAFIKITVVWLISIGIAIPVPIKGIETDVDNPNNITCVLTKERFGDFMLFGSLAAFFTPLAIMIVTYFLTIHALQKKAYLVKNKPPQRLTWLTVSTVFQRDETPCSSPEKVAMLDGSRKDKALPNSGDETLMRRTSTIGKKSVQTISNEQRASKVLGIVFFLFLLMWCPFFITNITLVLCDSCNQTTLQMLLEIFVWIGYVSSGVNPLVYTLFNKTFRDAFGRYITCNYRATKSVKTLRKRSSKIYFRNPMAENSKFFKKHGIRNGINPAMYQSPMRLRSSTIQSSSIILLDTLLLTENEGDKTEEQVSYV
5-hydroxytryptamine receptor 2A, sequence (O46635 whole entry): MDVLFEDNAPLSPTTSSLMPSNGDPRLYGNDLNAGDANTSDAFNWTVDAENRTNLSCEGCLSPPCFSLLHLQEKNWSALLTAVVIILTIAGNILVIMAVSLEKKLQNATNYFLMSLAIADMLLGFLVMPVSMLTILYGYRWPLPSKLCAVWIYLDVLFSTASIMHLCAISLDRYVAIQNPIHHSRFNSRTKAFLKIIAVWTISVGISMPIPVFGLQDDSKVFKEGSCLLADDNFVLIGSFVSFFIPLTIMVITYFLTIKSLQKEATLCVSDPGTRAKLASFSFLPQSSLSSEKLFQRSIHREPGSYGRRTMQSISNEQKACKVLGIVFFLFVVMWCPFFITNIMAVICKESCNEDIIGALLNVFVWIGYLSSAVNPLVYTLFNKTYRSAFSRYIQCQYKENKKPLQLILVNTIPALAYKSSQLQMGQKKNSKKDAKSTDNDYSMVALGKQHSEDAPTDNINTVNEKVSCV
5-hydroxytryptamine receptor 2A (Canis lupus familiaris), sequence (O46635 whole entry): as above
Muscarinic acetylcholine receptor M3, sequence (P20309 whole entry): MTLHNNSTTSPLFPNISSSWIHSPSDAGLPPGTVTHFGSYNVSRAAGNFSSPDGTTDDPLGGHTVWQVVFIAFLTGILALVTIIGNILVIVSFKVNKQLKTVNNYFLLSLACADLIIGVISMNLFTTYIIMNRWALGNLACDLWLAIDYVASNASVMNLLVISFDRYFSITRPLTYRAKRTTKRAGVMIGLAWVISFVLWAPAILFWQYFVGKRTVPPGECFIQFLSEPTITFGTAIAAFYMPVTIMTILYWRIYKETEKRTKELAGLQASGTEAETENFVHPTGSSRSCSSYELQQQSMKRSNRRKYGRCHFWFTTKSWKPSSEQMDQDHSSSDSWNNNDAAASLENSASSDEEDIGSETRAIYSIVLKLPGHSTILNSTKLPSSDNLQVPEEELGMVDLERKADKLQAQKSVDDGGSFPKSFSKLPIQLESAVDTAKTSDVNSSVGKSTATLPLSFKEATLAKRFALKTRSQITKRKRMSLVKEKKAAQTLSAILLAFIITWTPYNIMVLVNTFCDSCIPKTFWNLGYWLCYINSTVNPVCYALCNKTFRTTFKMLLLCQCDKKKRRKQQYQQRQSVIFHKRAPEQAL
Cytochrome P450 2C9, sequence (P11712 whole entry): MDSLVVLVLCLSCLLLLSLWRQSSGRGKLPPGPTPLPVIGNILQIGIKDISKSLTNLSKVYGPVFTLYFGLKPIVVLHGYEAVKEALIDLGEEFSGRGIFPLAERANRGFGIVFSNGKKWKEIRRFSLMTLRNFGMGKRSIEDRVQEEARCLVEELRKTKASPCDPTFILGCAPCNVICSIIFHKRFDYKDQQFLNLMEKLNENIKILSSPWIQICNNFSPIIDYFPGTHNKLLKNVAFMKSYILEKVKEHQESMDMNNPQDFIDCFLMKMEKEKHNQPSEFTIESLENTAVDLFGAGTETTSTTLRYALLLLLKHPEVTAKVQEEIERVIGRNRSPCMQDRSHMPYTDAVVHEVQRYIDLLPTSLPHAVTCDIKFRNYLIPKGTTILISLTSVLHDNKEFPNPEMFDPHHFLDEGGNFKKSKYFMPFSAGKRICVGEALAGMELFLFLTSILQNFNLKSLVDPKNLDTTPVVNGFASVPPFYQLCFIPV
Voltage-gated inwardly rectifying potassium channel KCNH2, sequence (Q12809 whole entry): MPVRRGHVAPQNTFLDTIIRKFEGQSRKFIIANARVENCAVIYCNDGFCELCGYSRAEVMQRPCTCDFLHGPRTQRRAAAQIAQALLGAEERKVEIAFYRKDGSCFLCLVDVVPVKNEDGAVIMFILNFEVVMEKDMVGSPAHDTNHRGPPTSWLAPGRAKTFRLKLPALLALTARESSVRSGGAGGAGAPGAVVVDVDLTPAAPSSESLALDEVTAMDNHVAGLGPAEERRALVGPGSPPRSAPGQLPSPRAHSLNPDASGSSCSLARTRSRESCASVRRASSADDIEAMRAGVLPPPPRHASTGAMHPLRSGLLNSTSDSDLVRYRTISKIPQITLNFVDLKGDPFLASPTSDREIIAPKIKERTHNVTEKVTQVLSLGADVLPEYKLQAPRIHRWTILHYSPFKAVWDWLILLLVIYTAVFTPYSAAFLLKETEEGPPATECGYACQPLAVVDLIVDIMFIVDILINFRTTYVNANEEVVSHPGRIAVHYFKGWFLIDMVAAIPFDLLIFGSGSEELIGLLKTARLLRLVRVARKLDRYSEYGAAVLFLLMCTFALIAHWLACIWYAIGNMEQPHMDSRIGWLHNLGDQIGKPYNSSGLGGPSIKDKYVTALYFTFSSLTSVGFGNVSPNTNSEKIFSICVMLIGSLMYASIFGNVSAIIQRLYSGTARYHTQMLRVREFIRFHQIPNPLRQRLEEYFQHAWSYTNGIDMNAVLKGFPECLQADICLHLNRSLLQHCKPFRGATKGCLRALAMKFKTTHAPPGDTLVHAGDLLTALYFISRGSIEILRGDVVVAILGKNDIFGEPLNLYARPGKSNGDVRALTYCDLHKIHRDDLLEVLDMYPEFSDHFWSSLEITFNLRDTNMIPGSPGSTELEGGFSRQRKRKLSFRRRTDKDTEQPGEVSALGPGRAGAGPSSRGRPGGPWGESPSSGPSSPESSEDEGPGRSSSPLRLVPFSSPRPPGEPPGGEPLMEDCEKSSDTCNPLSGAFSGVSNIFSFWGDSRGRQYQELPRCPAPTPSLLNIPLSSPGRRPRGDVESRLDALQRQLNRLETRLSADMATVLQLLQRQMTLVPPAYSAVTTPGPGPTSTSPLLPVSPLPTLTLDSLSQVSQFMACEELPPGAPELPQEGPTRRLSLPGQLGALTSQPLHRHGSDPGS
Cytochrome P450 3A4, sequence (P08684 whole entry): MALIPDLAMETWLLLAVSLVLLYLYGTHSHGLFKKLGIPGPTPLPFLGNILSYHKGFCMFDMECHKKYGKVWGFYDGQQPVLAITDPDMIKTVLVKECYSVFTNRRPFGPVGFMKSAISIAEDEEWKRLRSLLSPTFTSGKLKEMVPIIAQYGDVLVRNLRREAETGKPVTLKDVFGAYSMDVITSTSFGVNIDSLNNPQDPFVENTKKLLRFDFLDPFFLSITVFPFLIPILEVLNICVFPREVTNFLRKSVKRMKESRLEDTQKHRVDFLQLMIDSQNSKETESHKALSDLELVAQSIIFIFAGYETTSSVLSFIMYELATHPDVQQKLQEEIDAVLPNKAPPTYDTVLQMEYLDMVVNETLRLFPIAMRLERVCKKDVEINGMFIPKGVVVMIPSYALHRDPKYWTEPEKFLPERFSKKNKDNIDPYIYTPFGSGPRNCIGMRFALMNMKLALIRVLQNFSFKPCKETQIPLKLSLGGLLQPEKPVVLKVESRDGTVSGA
Cytochrome P450 2D6, sequence (P10635 whole entry): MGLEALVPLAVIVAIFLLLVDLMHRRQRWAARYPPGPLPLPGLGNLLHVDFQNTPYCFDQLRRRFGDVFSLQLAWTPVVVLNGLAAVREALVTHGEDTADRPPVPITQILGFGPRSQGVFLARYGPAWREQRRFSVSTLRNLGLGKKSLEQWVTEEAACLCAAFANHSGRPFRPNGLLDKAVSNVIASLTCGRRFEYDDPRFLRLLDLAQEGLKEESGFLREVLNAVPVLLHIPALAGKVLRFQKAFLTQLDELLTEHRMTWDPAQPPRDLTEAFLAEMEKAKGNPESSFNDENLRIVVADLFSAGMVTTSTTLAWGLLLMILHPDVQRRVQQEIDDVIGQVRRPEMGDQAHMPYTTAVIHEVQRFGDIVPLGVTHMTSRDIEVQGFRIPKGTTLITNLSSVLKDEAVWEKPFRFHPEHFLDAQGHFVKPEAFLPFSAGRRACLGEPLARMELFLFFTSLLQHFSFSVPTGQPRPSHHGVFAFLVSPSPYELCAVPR
Beta-2 adrenergic receptor, sequence (P07550 whole entry): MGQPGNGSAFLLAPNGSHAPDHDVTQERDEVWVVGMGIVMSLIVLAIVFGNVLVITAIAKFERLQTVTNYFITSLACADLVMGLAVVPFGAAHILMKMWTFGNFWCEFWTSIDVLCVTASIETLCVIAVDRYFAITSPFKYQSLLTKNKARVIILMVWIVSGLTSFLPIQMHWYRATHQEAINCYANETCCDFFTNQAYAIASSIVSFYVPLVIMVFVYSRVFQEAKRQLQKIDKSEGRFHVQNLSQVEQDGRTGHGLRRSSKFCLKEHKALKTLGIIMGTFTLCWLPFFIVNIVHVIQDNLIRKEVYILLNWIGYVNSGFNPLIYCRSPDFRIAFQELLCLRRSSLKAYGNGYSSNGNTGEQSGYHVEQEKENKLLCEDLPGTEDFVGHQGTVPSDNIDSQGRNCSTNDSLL

c1ccc(Cn2cc3c(n2)CCNCC3)cc1
Emax [1]: 65%
EC50 [2]: 4980 nM
EC50 [3]: > 10000 nM
Papp A→B [4]: 27 ×10⁻⁶ cm/s
microsomal CLint [5]: < 7 µL/min/mg
logD [6]: 0.1

O=c1cc2c(nn1Cc1ccc(OC(F)(F)F)cc1)CCNCC2
Emax [1]: 66%
Emax [7]: 58%
EC50 [2]: 48 nM
EC50 [3]: > 10000 nM
microsomal CLint [5]: < 7 µL/min/mg
logD [6]: 1.5

O=c1c2c([nH]n1Cc1ccccc1)CCNCC2
Emax [1]: 57%
EC50 [2]: > 10000 nM
EC50 [3]: > 10000 nM
CL [8]: 13 µL/min/mg
Papp A→B [4]: 2 ×10⁻⁶ cm/s
logD [6]: -0.5

CC(C)CCn1nc2c(cc1=O)CCNCC2
Emax [1]: 77%
Emax [9]: 65%
EC50 [2]: 62 nM
microsomal CLint [5]: < 7 µL/min/mg
logD [6]: 0.6

O=c1[nH]n(Cc2ccccc2)c2c1CCNCC2
Emax [1]: 68%
EC50 [2]: > 10000 nM
EC50 [3]: > 10000 nM
microsomal CLint [5]: < 7 µL/min/mg
logD [6]: -0.1

O=c1cc2c(nn1-c1ccccc1)CCNCC2
EC50 [2]: > 10000 nM
EC50 [3]: > 10000 nM
logD [6]: -0.3

Cc1nnc2c3c(nc(Cc4ccccc4)n12)CCNCC3
EC50 [10]: 1600 nM
Emax [11]: 36%

O=c1cc2c(nn1Cc1ccc(Cl)cc1)CCNCC2
Emax [1]: 40%
Emax [7]: 73%
EC50 [2]: 31 nM
EC50 [3]: 267 nM
microsomal CLint [5]: < 7 µL/min/mg
logD [6]: 1.1

O=c1cc2c(nn1Cc1ccc(C(F)(F)F)cc1)CCNCC2
Emax [1]: 47%
Emax [7]: 59%
EC50 [2]: 125 nM
EC50 [3]: 473 nM
microsomal CLint [5]: 10 µL/min/mg
logD [6]: 1.1

O=c1cc2c(nn1Cc1ccccc1Cl)CCNCC2
Emax [1]: 56%
Emax [7]: 67%
EC50 [2]: 33 nM
EC50 [3]: 94 nM
microsomal CLint [5]: < 7 µL/min/mg
logD [6]: 0.9

O=c1cc2c(nn1Cc1ccccc1OC(F)(F)F)CCNCC2
Emax [1]: 57%
Emax [7]: 86%
EC50 [2]: 107 nM
EC50 [3]: 142 nM
microsomal CLint [5]: < 7 µL/min/mg
logD [6]: 1.2

Clc1cccc(N2CCNCC2)c1
Emax [1]: 71%
Emax [7]: 35%

Cn1nc2c(cc1=O)CCNCC2
Emax [1]: 52%
Emax [9]: 32%
EC50 [2]: 338 nM

O=c1cc2c(nn1Cc1ccc(C3CC3)cc1)CCNCC2
Emax [1]: 51%
Emax [7]: 34%
EC50 [2]: 26 nM
EC50 [3]: 84 nM
microsomal CLint [5]: < 7 µL/min/mg
logD [6]: 1.4

N#Cc1ccc(Cn2nc3c(cc2=O)CCNCC3)cc1
Emax [1]: 51%
Emax [9]: 42%
EC50 [2]: 6630 nM
Papp A→B [4]: 11 ×10⁻⁶ cm/s
microsomal CLint [5]: < 7 µL/min/mg
logD [6]: -0.1

Cn1c2c(c(=O)n1Cc1ccccc1)CCNCC2
EC50 [2]: 2930 nM
EC50 [3]: > 10000 nM
Papp A→B [4]: 13 ×10⁻⁶ cm/s
microsomal CLint [5]: < 7 µL/min/mg
logD [6]: 0

O=c1cc2c(nn1Cc1ccccc1)CCNCC2
Emax [1]: 79%
Emax [7]: 48%
Ratio EC50 [12]: 10
EC50 [2]: 31 nM
EC50 [3]: 358 nM
Papp A→B [4]: 25 ×10⁻⁶ cm/s
microsomal CLint [5]: < 7 µL/min/mg
logD [6]: 0.3

O=c1cc2c(nn1CCOc1ccccc1)CCNCC2
EC50 [2]: > 10000 nM
EC50 [3]: > 10000 nM
microsomal CLint [5]: < 7 µL/min/mg
logD [6]: 0.4

Cc1nc2c3c(nc(Cc4ccccc4)n2n1)CCNCC3
EC50 [10]: 1800 nM
Ki [13]: > 22000 nM
Ki [14]: 3700 nM
Ki [15]: 7600 nM
Ki [16]: 8200 nM
inhibition (INH) [17]: < 10%
inhibition (INH) [18]: < 10%
inhibition (INH) [19]: < 10%
inhibition (INH) [20]: < 10%
Efficacy [21]: 20%
concentration at 1 h [22]: 89 nM
Emax [11]: 40%

O=c1cc2c(nn1Cc1cccc(Cl)c1)CCNCC2
Emax [1]: 70%
Emax [7]: 73%
EC50 [2]: 30 nM
EC50 [3]: 81 nM
Papp A→B [4]: 32 ×10⁻⁶ cm/s
microsomal CLint [5]: < 7 µL/min/mg
logD [6]: 1.1

c1ccc(COc2n[nH]c3c2CCNCC3)cc1
Emax [7]: 56%
EC50 [2]: 176 nM
EC50 [3]: 353 nM
Papp A→B [4]: 24 ×10⁻⁶ cm/s
microsomal CLint [5]: < 7 µL/min/mg
logD [6]: 0.5
